One data set has as its system MMP-2. As to the kind of experiment: In vitro MMP-2 enzyme specificity. It counts as biochemical.
In another data set the test system is U87MG tumor. The data set is described as follows: Ex vivo biodistribution in tumors and organs. Conditions: tumors and organs removed after 4 h time point; n = 3. Further details: species or system mice.
In data set [1] the test system is MMP- and αvβ3 integrin receptor-positive U87MG tumor. As to the kind of experiment: In vivo NIR fluorescence imaging of U87MG tumor-bearing mice. The conditions noted are these: for Clearance from the blood and other organs / Fluorescent signals in the tumor over time: 0.5 nmol injected.
The next data set deals with U87MG cells. The data set is described as follows: NIR fluorescence microscopy of fixed U87MG cells. It counts as cell-based, human.

Regarding `CCN(CC)c1ccc2nc3ccc(N=Nc4ccc(N(C)CCCC(=O)NCCCC[C@H](NC(=O)CNC(=O)[C@H](CCCNC(=N)N)NC(=O)[C@@H](NC(=O)CNC(=O)[C@H](CC(C)C)NC(=O)[C@@H]5CCCN5C(=O)CNC(=O)CCCCC[N+]5=C(C=CC=CC=C6N(CC)c7ccc8c(S(=O)(=O)O)cc(S(=O)(=O)O)cc8c7C6(C)C)C(C)(C)c6c5ccc5c(S(=O)(=O)O)cc(S(=O)(=O)O)cc65)C(C)C)C(=O)NCC(=O)NCC(=O)NCCCC[C@@H]5NC(=O)[C@@H](Cc6ccc(O)cc6)NC(=O)[C@H](CC(=O)O)NC(=O)CNC(=O)[C@H](CCCNC(=N)N)NC5=O)cc4)cc3[n+](-c3ccccc3)c2c1` [compound 4], the “Recovery of fluorescence at different MMP-2 concentrations” value with MMP-2 (MMP-2 0, 2, 5, 10, 20, 40 nM, 80 min incubation, n = 3) is “dependent on the MMP-2 concentration”. In addition, the “Fluorescence recovery in the presence of MMP inhibitor” value in the data set with MMP-2 (MMP-2 with homophenylalanine-hydroxamine acid based broad spectrum MMP inhibitor) was “inhibited”. Moreover, in the data set on U87MG tumor, the Ex vivo biodistribution result is “predominantly activated in the tumors among other organs”. The “NIR fluorescence signal from the tumor with MMP inhibitor” value in data set [1] (3 nmol i.v., MMP inhibitor intratumorally injected 30 min before) is given as “significantly reduced”. For the same compound, the “Tumor uptake with excess unlabeled c(RGDyK)” value in data set [1] (30 min post-injection, c(RGDyK) 200 nmol) is “effectively blocked”. Also, in data set [1] (intravenous, 3 nmol of 4, from 1 h post-injection), the “NIR fluorescent images compared to 6” value is “brighter NIR fluorescent images compared to 6”. Besides, the “Visualization of MMP expression in MMP-positive tumor” value in data set [1] (intravenous, 4 at 3 nmol, imaging for 4 h) is “enabled visualization of MMP expression in an MMP-positive tumor”.

Regarding `N=C(N)NCCC[C@@H]1NC(=O)[C@H](CCCCN)NC(=O)[C@@H](Cc2ccc(O)cc2)NC(=O)[C@H](CC(=O)O)NC(=O)CNC1=O` [compound 7, reference compound], in data set [1] (imaging for 4 h), the “Clearance from the blood and other organs” value was “slowly cleared from the blood and other organs”; the “Fluorescent signals in the tumor over time” value is “gradually increased fluorescent signals in the tumor”.

For `CCN1C(=CC=CC=CC2=[N+](CCCCCC(=O)NCC(=O)N3CCC[C@H]3C(=O)N[C@@H](CC(C)C)C(=O)NCC(=O)N[C@H](C(=O)N[C@@H](CCCNC(=N)N)C(=O)NCC(=O)N[C@@H](CCCCN)C(=O)NCC(=O)NCC(=O)NCCCC[C@@H]3NC(=O)[C@@H](Cc4ccc(O)cc4)NC(=O)[C@H](CC(=O)O)NC(=O)CNC(=O)[C@H](CCCNC(=N)N)NC3=O)C(C)C)c3ccc4c(S(=O)(=O)O)cc(S(=O)(=O)O)cc4c3C2(C)C)C(C)(C)c2c1ccc1c(S(=O)(=O)[O-])cc(S(=O)(=O)O)cc21` [compound 5], the “Binding with receptor blocking by excess c(RGDyK)” value with U87MG cells (30 min at 37 °C, blocking dose of c(RGDyK) 10 µM) is given as “significantly decreased binding”. The “Fluorescent signals on cells” value in the data set on U87MG cells (30 min incubation at 37 °C, without blocking) is “strong positive fluorescent signals on the cell membranes”. In data set [1] (imaging for 4 h), the “Clearance from the blood and other organs” value was “slowly cleared from the blood and other organs”; the “Fluorescent signals in the tumor over time” value is given as “gradually increased fluorescent signals in the tumor”.
